Tested on: human myeloma cell line MM.1S
Assay: SILAC acetylated-lysine peptide profiling, HDAC inhibitor vs DMSO (light/heavy ratio)
Type: cell-based
Text: An embodiment of the invention comprises utilizing the SILAC method in order to quantitate changes in protein expression between two or more populations of cells. The SILAC method is a technique based on mass spectrometry that detects differences in protein abundance among samples using non-radioactive isotopic labeling. The SILAC method is known in the art, and described in detail in Ong et al., “Stable Isotope Labeling by Amino Acids in Cell Culture, SILAC, as a Simple and Accurate Approach to Expression Proteomics”, Molecular & Cellular Proteomics, vol. 1, pp. 376-386 (2002), which is incorporated herein by reference in its entirety.
Briefly, the SILAC method involves growing two populations of cells in cell culture. The first population of cells is grown in growth media containing normal amino acids (“normal media”). The second population of cells is grown in media lacking a standard essential amino acid (such as lysine), but is then supplemented with a non-radioactive, isotopically labeled form of that essential amino acid (such as lysine labeled with ^13C atoms, rather than normal ^12C atoms), which is called “heavy media”. When the two populations of cells are each growing in the medium, they incorporate the amino acids into all of their proteins. The growth of cells maintained in the heavy media is no different from that in normal media. All peptides containing the heavy amino acids are heavier than their normal counterparts. The cells from each of the two populations of cells are lysed. The lysates from each of the two cell populations are then combined. The combined cell lysates are then analyzed by mass spectrometry. Pairs of chemically identical peptides of different stable isotope composition can be differentiated in a mass spectrometer due to their difference in mass. The ratio of peak intensities in the mass spectrum for such peptide pairs reflects the abundance ratio for the two proteins.
This example describes SILAC studies that were performed to compare the effects of three different HDAC inhibitors (Compound A, Compound B, and tubastatin A) to a control on a human multiple myeloma cell line. The HDAC inhibitors were also compared amongst themselves to determine differences in their effects.
A human myeloma cell line MM.1S was grown using either ^12C (light) or ^13C (heavy) lysine containing culture medium. The “heavy” cells were treated with DMSO as the control, and the “light” cells were treated with a single HDAC inhibitor at 37° C. for 6 hours. The heavy and light cells were lysed, and the lysates were mixed in 1:1 ratio and digested with the protease trypsin. The acetylated lysine containing peptides (due to the action of the HDAC inhibitor) in the digested peptide pool were captured by a non-specific anti-acetylated lysine antibody cocktail (the antibodies identify both light and heavy acetylated peptides), and subjected to mass spectrometry analysis in order to identify thousands of individual peptides.
Thousands of peptides were identified in pairs (^12C and ^13C) due to their known mass differences. The amino acid sequence and quantitative ratio (Light/Heavy) of a given peptide in two differentially treated cell lysates were then determined and annotated with their possible protein (gene) sources.
As stated above, three HDAC inhibitors (Compound A, Compound B, and Tubastatin A) were used. Thus, the SILAC method was performed three times, with a different HDAC inhibitor compared to a control each time. Accordingly, there are three pairs of quantitative data in the table below, i.e., Compound A:DMSO, Compound B:DMSO, and Tubastatin A:DMSO. A cut-off of 1.30 fold of change (increase or decrease) was then used to determine “changed” or “+” in the table, and any peptides with a fold of change less than 1.3 fold were determined to be “unchanged” or “0” in the table. Those peptides that were not identified were marked as “NA” in the table. […]

O=C(CCCCCCNC(=O)c1cnc(N(c2ccccc2)c2ccccc2)nc1)NO [Compound A, 2-(diphenylamino)-N-(7-(hydroxyamino)-7-oxoheptyl)pyrimidine-5-carboxamide]
light to heavy ratio (L/H ratio), log 2 scale, acetylated peptide PEPAK(ac)SAPAPKK (SEQ ID NO: 795) (Histone H2B type 2-E [6], gene HIST2H2BE, drug:DMSO): 1.00 | light to heavy ratio (L/H ratio), log 2 scale, acetylated peptide K(ac)AVTK(ac)AQK (SEQ ID NO: 794) (Histone H2B type 2-E [17:21], gene HIST2H2BE, drug:DMSO): 1.00 | light to heavy ratio (L/H ratio) of acetylated peptide AVTK(ac)AQK(ac)K (SEQ ID NO: 560) (Histone H2B type 2-E [21:24], gene HIST2H2BE, inhibitor:DMSO): 0.40 log 2 | light to heavy ratio (L/H ratio) of acetylated peptide K(ac)STGGK(ac)APR (SEQ ID NO: 310) (Histone H3.2 [10:15], HIST2H3D, HIST2H3A, HIST2H3C, drug:DMSO): 1.00 log 2 | light to heavy ratio (L/H ratio), log 2 scale, acetylated peptide K(ac)QLATK(ac)AAR (SEQ ID NO: 796) (Histone H3.2 [19:24], gene HIST2H3D, HIST2H3A, HIST2H3C, drug:DMSO): 1.00 | light to heavy ratio (L/H ratio) of acetylated peptide GK(ac)GGK(ac)GLGK (SEQ ID NO: 311) (Histone H4 [6:9], HIST2H4B, HIST1H4C and other H4 genes, drug:DMSO): 1.00 log 2 | light to heavy ratio (L/H ratio) of acetylated peptide GLGK(ac)GGAK(ac)R (SEQ ID NO: 312) (Histone H4 [13:17], HIST2H4B, HIST1H4C and other H4 genes, drug:DMSO): 1.00 log 2 | light to heavy ratio (L/H ratio) of acetylated peptide GLGK(ac)GGAKR (SEQ ID NO: 313) (Histone H4 [13], HIST2H4B, HIST1H4C and other H4 genes, drug:DMSO): 1.00 log 2 | light to heavy ratio (L/H ratio) of acetylated peptide DGLQNEK(ac)NIVSTPVK (SEQ ID NO: 268) (Hydroxymethylglutaryl-CoA lyase mitochondrial [48], HMGCL, drug:DMSO): 0.45 log 2 | light to heavy ratio (L/H ratio) of acetylated peptide K(ac)[…] (SEQ ID NO: 594) (Hydroxymethylglutaryl-CoA lyase mitochondrial [137], gene HMGCL, inhibitor:DMSO): 0.45 log 2 | L/H ratio of acetylated peptide […](ac)SHR (SEQ ID NO: 56) (IGLV2-14, IGLC2 [208], log 2 scale, drug vs DMSO): 0.00 | light to heavy ratio (L/H ratio) of acetylated peptide, log 2 scale (IGQGYLIK(ac)DGK (SEQ ID NO: 249), 60S ribosomal protein L3 [294], SNORD43, RPL3): −0.44 | L/H ratio of acetylated peptide (IK(ac)[…] (SEQ ID NO: 480), Isoform 2 of Heat shock protein HSP 90-alpha [403], HSP90AA1): 0.39 log 2 | L/H ratio of acetylated peptide (IVQK(ac)[…] (SEQ ID NO: 489), Death-associated protein 1 [29], DAP): 1.00 log 2 | light to heavy ratio (L/H ratio), log 2 scale, acetylated peptide ADLIK(ac)QYGR (SEQ ID NO: 798) (Inactive hydroxysteroid dehydrogenase-like protein 1 [64], gene HSDL1, drug:DMSO): 1.00 | light to heavy ratio (L/H ratio), log 2 scale, acetylated peptide LMK(ac)ICMNEDPAK (SEQ ID NO: 800) (Integrin-linked protein kinase [426], gene ILK, drug:DMSO): 1.00 | light to heavy ratio (L/H ratio) of acetylated peptide HAHGDQYK(ac)ATDFVADR (SEQ ID NO: 574) (Isocitrate dehydrogenase [NADP] mitochondrial [180], gene IDH2, inhibitor:DMSO): 0.42 log 2 | light to heavy ratio (L/H ratio) of acetylated peptide AGTFK(ac)MVFTPK (SEQ ID NO: 606) (Isocitrate dehydrogenase [NADP] mitochondrial [193], gene IDH2, inhibitor:DMSO): 0.46 log 2 | light to heavy ratio (L/H ratio) of acetylated peptide TDFDKNK(ac)IWYEHR (SEQ ID NO: 555) (Isocitrate dehydrogenase [NADP] mitochondrial [282], gene IDH2, inhibitor:DMSO): 0.40 log 2 | light to heavy ratio (L/H ratio) of acetylated peptide AVLIDK(ac)DQSPK (SEQ ID NO: 577) (Isoform 1 of 3-hydroxyisobutyryl-CoA hydrolase mitochondrial [353], gene HIBCH, inhibitor:DMSO): 0.43 log 2 | light to heavy ratio (L/H ratio) of acetylated peptide TSSAFVGK(ac)TPEASPEPK (SEQ ID NO: 598) (Isoform 1 of 26S proteasome non-ATPase regulatory subunit 1 [310], gene PSMD1, inhibitor:DMSO): 0.46 log 2 | light to heavy ratio (L/H ratio) of acetylated peptide […](ac)VVQER (SEQ ID NO: 318) (Isoform 1 of 39S ribosomal protein L47 mitochondrial [144], MRPL47, drug:DMSO): 1.00 log 2 | light to heavy ratio (L/H ratio) of acetylated peptide ATVPK(ac)TEIR (SEQ ID NO: 272) (Isoform 1 of 40S ribosomal protein S24 [37], RPS24, drug:DMSO): 0.47 log 2 | light to heavy ratio (L/H ratio) of acetylated peptide AEEILEK(ac)GLK (SEQ ID NO: 547) (Isoform 1 of 60S ribosomal protein L11 [85], gene RPL11, inhibitor:DMSO): 0.39 log 2 | light to heavy ratio (L/H ratio) of acetylated peptide ISK(ac)EEAMR (SEQ ID NO: 299) (Isoform 1 of 60S ribosomal protein L11 [159], RPL11, drug:DMSO): 0.84 log 2 | light to heavy ratio (L/H ratio) of acetylated peptide AGLVDDFEK(ac)K (SEQ ID NO: 301) (Isoform 1 of ATP synthase subunit d mitochondrial [72], ATP5H, drug:DMSO): 0.86 log 2 | light to heavy ratio (L/H ratio) of acetylated peptide VPVPEDK(ac)[…] (SEQ ID NO: 290) (Isoform 1 of ATP synthase subunit d mitochondrial [85], ATP5H, drug:DMSO): 0.66 log 2 | light to heavy ratio (L/H ratio) of acetylated peptide GK(ac)FGNVYLAR (SEQ ID NO: 537) (Isoform 1 of Aurora kinase C [53], gene AURKC, inhibitor:DMSO): −0.39 log 2 | light to heavy ratio (L/H ratio) of acetylated peptide VWNYK(ac)LR (SEQ ID NO: 593) (Isoform 1 of Coatomer subunit alpha [81], gene COPA, inhibitor:DMSO): 0.45 log 2 | light to heavy ratio (L/H ratio) of acetylated peptide SLLK(ac)PFCAALLK (SEQ ID NO: 329) (Isoform 1 of Cytoskeleton-associated protein 5 [438], CKAP5, drug:DMSO): 0.00 log 2 | light to heavy ratio (L/H ratio) of acetylated peptide VLGTVK(ac)WFNVR (SEQ ID NO: 515) (Isoform 1 of DNA-binding protein A [96], gene CSDA, inhibitor:DMSO): −0.57 log 2 | light to heavy ratio (L/H ratio) of acetylated peptide TLK(ac)ALEYVFK (SEQ ID NO: 516) (Isoform 1 of Dedicator of cytokinesis protein 2 [738], gene DOCK2, inhibitor:DMSO): −0.57 log 2 | light to heavy ratio (L/H ratio), log 2 scale, acetylated peptide VAFK(ac)YCQK (SEQ ID NO: 775) (Isoform 1 of Dolichyl-phosphate beta-glucosyltransferase [122], gene ALG5, drug:DMSO): 1.00 | light to heavy ratio (L/H ratio), log 2 scale, acetylated peptide ILSK(ac)LSEETK (SEQ ID NO: 759) (Isoform 1 of E3 UFM1-protein ligase 1 [614], gene UFL1, drug:DMSO): 0.91 | light to heavy ratio (L/H ratio), log 2 scale, acetylated peptide NEEATK(ac)HLECTK (SEQ ID NO: 785) (Isoform 1 of Fragile X mental retardation syndrome-related protein 1 [207], gene FXR1, drug:DMSO): 1.00 | light to heavy ratio (L/H ratio) of acetylated peptide ELEK(ac)VCNPIITK (SEQ ID NO: 612) (Isoform 1 of Heat shock cognate 71 kDa protein [601], gene HSPA8, inhibitor:DMSO): 0.47 log 2
